Two substances from US9409876B2, “Bradykinin receptor antagonists and pharmaceutical compositions containing them” (DOMPE' FARMACEUTICI S.P.A., priority 2013, dated 2016) can be followed below.

This assay deals with T1, BKB1 receptors (Homo sapiens, UniProt P46663).
T1 construct: Human (IMR-90) lung fibroblast cells expressing native BKB1 receptors; endogenous in cells; host or cells: IMR-90 human lung fibroblasts, treated with human IL-1 to up-regulate BKB1
T1 sequence (P46663 1-353): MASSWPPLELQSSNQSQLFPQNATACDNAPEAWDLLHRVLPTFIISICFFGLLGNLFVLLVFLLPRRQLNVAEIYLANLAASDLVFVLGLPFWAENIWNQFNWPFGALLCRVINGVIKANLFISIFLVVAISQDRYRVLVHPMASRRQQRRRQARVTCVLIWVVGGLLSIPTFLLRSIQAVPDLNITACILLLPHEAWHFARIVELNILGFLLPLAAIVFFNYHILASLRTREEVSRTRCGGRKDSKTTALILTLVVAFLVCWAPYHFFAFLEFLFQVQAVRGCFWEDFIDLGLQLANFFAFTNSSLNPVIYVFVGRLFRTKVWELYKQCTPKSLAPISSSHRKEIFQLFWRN
As to the kind of experiment: Calcium Mobilization Assay (FLIPR), IMR-90 cells, BKB1. Type of assay: cell-based. To be noted: IL-1 induced IMR-90 cells, agonist desArg10-kallidin (DAKD). As to the method:
Calcium Mobilization Assay (FLIPR)—Human (IMR-90) lung fibroblast cells expressing native BKB1 receptors were harvested by trypsinization and seeded into black wall/clear bottom 96-well plates (Costar 3904; Corning Life Sciences, Acton, Mass.) at approximately 13,000 cells/well. After 1 day incubation, cells were treated with human IL-1 (0.35 ng/ml) in 10% FBS/MEM for 2 h to up-regulate BKB1 receptors. Induced cells were loaded with fluorescent calcium indicator by incubation with 2.3 µM Fluo-4/acetoxymethyl ester (Invitrogen) at 37° C. for 1.5 h in the presence of an anion transport inhibitor (2.5 mM probenecid in 1% FBS/MEM). Extracellular dye was removed by washing with assay buffer (2.5 mM probenecid, 0.1% BSA in 20 mM HEPES/HBSS without bicarbonate or phenol red, pH 7.5) and cell plates were kept in the dark until used. Test compounds were assayed at eight concentrations in triplicate.
For orientation: Calcium flux is commonly read through the fluorescence of an indicator in the cells.

For the substance “N-(2-methoxybenzyl)-N-{(1R)-1-(4-methylphenyl)-2-oxo-2-[(2R)-(pyrrolidin-2-ylmethyl)amino]ethyl}-2-(1H-1,2,3-triazol-1-yl)acetate [Compound 55 (R,R)]”, the IC50 was determined as 75.7 nM. Under “N-(2-methoxybenzyl)-N-{(1S)-1-(4-methylphenyl)-2-oxo-2-[(2R)-(pyrrolidin-2-ylmethyl)amino]ethyl}-2-(1H-1,2,3-triazol-1-yl)acetate [55 (S,R)]” stands 120 nM.

As a reminder, the IC50 is the concentration needed to halve the response being measured.
